For 15 molecules, IC50 results are on record in patent US12240830B2, “Fused ring heteroaryl compounds and use thereof” (BiSiChem Co., Ltd., priority 2021, dated 2025).

Structures are written as SMILES. Some results are limits rather than exact numbers.

This assay deals with T1, ALK5 (Homo sapiens, UniProt P36897).
T1 construct: Cells were seeded at 3×10^4/well in 24-well plates were transiently transfected with 500 ng of (CAGA)-12-luciferase reporter construct; endogenous in cells; host or cells: Hs578T (ATCC HTB-22)
T1 sequence (P36897 34-503): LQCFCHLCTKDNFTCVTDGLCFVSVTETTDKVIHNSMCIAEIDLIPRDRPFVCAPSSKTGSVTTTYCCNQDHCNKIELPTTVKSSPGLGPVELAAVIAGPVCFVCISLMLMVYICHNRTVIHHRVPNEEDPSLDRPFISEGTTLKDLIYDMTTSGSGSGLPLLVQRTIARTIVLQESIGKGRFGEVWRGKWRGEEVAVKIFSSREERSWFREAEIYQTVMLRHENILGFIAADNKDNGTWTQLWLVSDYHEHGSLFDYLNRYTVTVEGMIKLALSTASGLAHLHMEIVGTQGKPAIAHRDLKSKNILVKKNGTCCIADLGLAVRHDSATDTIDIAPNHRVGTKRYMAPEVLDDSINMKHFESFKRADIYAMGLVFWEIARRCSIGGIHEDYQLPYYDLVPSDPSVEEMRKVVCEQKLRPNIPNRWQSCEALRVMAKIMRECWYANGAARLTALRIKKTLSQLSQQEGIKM
Put plainly: Cell-based luciferase reporter assay for ALK5 activity. Conditions: (CAGA)-12-luciferase reporter, cells stimulated with 2 ng/ml recombinant TGF-β1 for 12 hours; Hs578T cells; read-out: Relative luciferase activity: IC50 value. On the procedure:
Human cancer cell lines Hs578T (ATCC® HTB-22™) cells were grown in DMEM (Dulbecco's modified Eagle's medium) supplemented with 10% fetal bovine serum and 1% mixture of penicillin and streptomycin (Gibco). Cells were maintained at 37° C. in a humidified 5% CO2− atmosphere.
Cell-Based Luciferase Reporter Assay for ALK5 Activity
Cells were seeded at 3×10^4/well in 24-well plates were transiently transfected with 500 ng of (CAGA)-12-luciferase reporter construct and 5 ng of pRL-TK Renilla luciferase vector (Promega, Madison, WI), an internal control for transfection efficiency, using Lipofectamine 3000 reagent (Thermo Fisher Scientific, Waltham, USA). After 24 h transfection, the cells were pre-treated with ALK5 inhibitor in dose-dependent manner. And then, Cells stimulated with 2 ng/ml recombinant TGF-β1 for 12 hours. After the stimulation, the firefly and Renilla luciferase activities were measured by Dual-Luciferase Reporter Assay (Promega). […]
A general note: Reporter assays use an easily measured gene product as a stand-in for the process of interest.
What is called IC50 is the concentration that gives 50% inhibition. As to `Cc1cccc(-c2[nH]c(NCc3cccc(F)c3)nc2-c2cnc3c(cnn3C)c2)n1` [Example 31, N-(3-fluorobenzyl)-4-(1-methyl-1H-pyrazolo[3,4-b]pyridin-5-yl)-5-(6-methyl-pyridin-2-yl)-1H-imidazol-2-amine], the IC50 is under 10 nM.

With `Cc1cccc(-c2[nH]c(NCc3cccc(Cl)c3F)nc2-c2ccc3c(cnn3C(F)F)c2)n1` [Example 27], the half-inhibitory concentration (IC50) lay within 10 to 100 nM.

For `Cc1cccc(-c2[nH]c(NCc3cccc(F)c3)nc2-c2ccc3c(cnn3C)n2)n1` [Example 32, N-(3-fluorobenzyl)-4-(1-methyl-1H-pyrazolo[4,3-b]pyridin-5-yl)-5-(6-methyl-pyridin-2-yl)-1H-imidazol-2-amine], the IC50 is over 100 nM.

As to `Cc1cccc(-c2[nH]c(NCc3ccc(Cl)c(Cl)c3)nc2-c2ccc3c(cnn3C(F)F)c2)n1` [Example 28, N-(3,4-dichlorobenzyl)-4-(1-(difluoromethyl)-1H-indazol-5-yl)-5-(6-methyl-pyridin-2-yl)-1H-imidazol-2-amine], the half-maximal inhibitory concentration (IC50) is 10 to 100 nM.

For the molecule `Cc1ccc(CNc2nc(-c3ccc4c(cnn4C)c3)c(-c3cccc(C)n3)[nH]2)c(F)c1` [Example 18, N-(2-fluoro-4-methylbenzyl)-4-(1-methyl-1H-indazol-5-yl)-5-(6-methylpyridin-2-yl)-1H-imidazol-2-amine], the IC50 is under 10 nM.

`Cc1cccc(-c2[nH]c(NCc3cccc(C)c3F)nc2-c2ccc3c(cnn3C)c2)n1` [Example 17, N-(2-fluoro-3-methylbenzyl)-4-(1-methyl-1H-indazol-5-yl)-5-(6-methylpyridin-2-yl)-1H-imidazol-2-amine]: the IC50 is 10 to 100 nM.

Take `Cc1cccc(-c2[nH]c(NCc3cccc(F)c3)nc2-c2cc3cnn(C)c3cn2)n1` [Example 33, N-(3-fluorobenzyl)-4-(1-methyl-1H-pyrazolo[3,4-c]pyridin-5-yl)-5-(6-methyl-pyridin-2-yl)-1H-imidazol-2-amine]: the concentration for half-maximal inhibition (IC50) was under 10 nM.

In the case of `Cc1cccc(-c2[nH]c(NCc3cccc(F)c3)nc2-c2ccc3c(cnn3C(C)(C)CO)c2)n1` [Example 26, 2-(5-(2-((3-fluorobenzyl)amino)-5-(6-methylpyridin-2-yl)-1H-imidazol-4-yl)-1H-indazol-1-yl)-2-methylpropan-1-ol], the concentration for half-maximal inhibition (IC50) is over 100 nM.

For the molecule `Cc1cccc(-c2[nH]c(NCc3cccc(F)c3)nc2-c2ccc3c(cnn3S(C)(=O)=O)c2)n1` [Example 22, N-(3-fluorobenzyl)-5-(6-methylpyridin-2-yl)-4-(1-(methylsulfonyl)-1H-indazol-5-yl)-1H-imidazol-2-amine], the IC50 was over 100 nM.

In the case of `Cc1cccc(-c2[nH]c(NCc3ccc(F)c(F)c3)nc2-c2ccc3c(cnn3C(F)F)c2)n1` [Example 29, N-(3,4-difluorobenzyl)-4-(1-(difluoromethyl)-1H-indazol-5-yl)-5-(6-methyl-pyridin-2-yl)-1H-imidazol-2-amine], the IC50 is 10 to 100 nM.

As to `Cc1cccc(-c2[nH]c(NCc3cccc(Cl)c3F)nc2-c2ccc3c(cnn3C)c2)n1` [Example 23, N-(3-chloro-2-fluorobenzyl)-4-(1-methyl-1H-indazol-5-yl)-5-(6-methylpyridin-2-yl)-1H-imidazol-2-amine], the 50% inhibitory concentration (IC50) was under 10 nM.

`Cc1cccc(-c2[nH]c(NCc3ccc(C)c(F)c3)nc2-c2ccc3c(cnn3C)c2)n1` [Example 19, N-(3-fluoro-4-methylbenzyl)-4-(1-methyl-1H-indazol-5-yl)-5-(6-methyl-pyridine-2-yl)-1H-imidazol-2-amine]: the IC50 is under 10 nM.

Regarding `Cc1cccc(-c2[nH]c(NCc3cccc(F)c3)nc2-c2cnc3[nH]ncc3c2)n1` [Example 38, N-(3-fluorobenzyl)-5-(6-methylpyridin-2-yl)-4-(1H-pyrazolo[3,4-b]pyridin-5-yl)-1H-imidazol-2-amine], the half-inhibitory concentration (IC50) was in the range of 10 to 100 nM.

In the case of `Cc1cccc(-c2[nH]c(NCc3ccc(F)cc3F)nc2-c2ccc3c(cnn3C)c2)n1` [Example 36, N-(2,4-difluorobenzyl)-4-(1-methyl-1H-indazol-5-yl)-5-(6-methylpyridin-2-yl)-1H-imidazol-2-amine], the IC50 was 10 to 100 nM.

For the molecule `Cc1cccc(-c2[nH]c(NCc3cccc(F)c3F)nc2-c2ccc3c(cnn3C)c2)n1` [Example 35, N-(2,3-difluorobenzyl)-4-(1-methyl-1H-indazol-5-yl)-5-(6-methylpyridin-2-yl)-1H-imidazol-2-amine], the IC50 is 10 to 100 nM.
